Measurements from patent US20240165097A1, “PHARMACEUTICAL COMPOSITION FOR THE TREATMENT OF ALZHEIMER'S DISEASE OR DEMENTIA” (Heptares Therapeutics Limited, priority 2021, published 2024).

Test system: patients with mild-to-moderate AD
Test: Example D: EEG and evoked response potentials
Type: in vivo, human
Procedure: Exploratory pharmacodynamic endpoints (Cogstate tests and EEG/evoked response potential [ERP] biomarkers) were evaluated at screening (practice sessions) and baseline visits, and on Day 28±1. While this study was not powered to detect PD effects of small to moderate ESs, the study sample size provided approximately 80% power to detect a large ES of 0.97 for these endpoints using a significance level of 0.10.
Brain activity was measured at rest using EEG, and during presentation of auditory stimuli using ERPs. The following EEG and ERP parameters were examined because of their sensitivities in detecting brain activity abnormalities at rest and during cognitive processing in patients with AD (Dierks T, Ihl R, Frolich L, Maurer K. Psychiatry Res. 1993; 50(3):151-162; Hedges D, Janis R, Mickelson S, Keith C, Bennett D, Brown B L. Clin EEG Neurosci. 2016; 47(1):48-55; Pekkonen E. Audiol Neurootol. 2000; 5(3-4):216-224): • Resting state power in the delta, theta, alpha, beta and gamma frequency bands measured by EEG activity during eyes open and eyes closed conditions (3 minutes each). • ERP markers (approximately 45 minutes) • Mismatch negativity (MMN; sensory gating/change detection)—amplitude and latency • P300-P3a and P3b (attention and working memory updating)—amplitude and latency • 40 Hz auditory steady-state response (ASSR; gamma oscillations and synchrony)—gamma-band evoked power and phase locking
EEG and ERP markers were quantified using the following paradigms: • Resting state paradigm (6 minutes): EEGs were recorded while patients were sitting with their eyes open (3 minutes) and closed (3 minutes) for frequency band-power analyses in the delta, theta, alpha, beta, and gamma frequency bands. Primary dependent measure was mean normalised power at Cz electrode in the eyes open and closed conditions. • Passive auditory oddball paradigm (23 minutes): Patients were instructed to ignore auditory stimuli while viewing a silent movie. Patients listened to a pseudorandom sequence of 85 dB tones (5 msec rise/fall times, 500 msec stimulus onset asynchrony); 85% were standards (50 msec, 1 kHz) and 15% were deviants that differed in both duration and pitch (125 msec, 1.5 kHz). Event-related potentials were generated in response to standard and deviant waveforms. Deviant minus standard difference waves were generated. The primary dependent measures were MMN amplitude and latency at Fz and FCComp electrodes (an average of frontal electrodes). • 40 Hz ASSR paradigm (8 minutes): Gamma steady-state responses were assessed in response to 1 ms 85 dB white noise clicks presented in 500 ms trains at a frequency of 40 Hz, with an inter-train interval of 1 second. A total of 500 click trains were presented. The primary dependent measure was gamma-band—evoked power and gamma phase locking at Fz and FCComp electrodes. • Active auditory oddball paradigm (11 minutes): Patients listened to a pseudorandom sequence of 85 dB tones (5 msec rise/fall times, 1500 msec stimulus onset asynchrony); 80% were standards (50 msec, 1 kHz) and 20% were targets (500 msec, 0.5 kHz). Patients were instructed to press a button when they heard target stimuli. ERPs were generated in response to target tones (P3b). The primary dependent measures were P3b amplitude and latency at CPComp electrodes (an average of central and parietal electrodes).
Patient data were collected from a 64-electrode cap onto a qualified and validated study system operated by site personnel who were specifically trained and certified for the study. The EEGs obtained at each patient visit were reviewed qualitatively by the study EEG expert (who remained blinded to dose allocation) and feedback was provided directly to the relevant site personnel on an ongoing basis and within 2 days of the assessment, to minimise issues from inter-site variability and to ensure the highest possible levels of consistency and reproducibility with respect to the EEG procedures. […]

CCOC(=O)N1C2CCC1CC(N1CCC3(CC1)CNC(=O)C3)C2 (stereo not drawn) [HTL0018318, ethyl 3-(3-oxo-2,8-diazaspiro[4.5]dec-8-yl)-8-azabicyclo[3.2.1]octane-8-carboxylate] was tested, and the “MMN amplitude at Fz electrode, ES” value (5 mg, Day 28) was −0.84, the “MMN amplitude at Fz electrode, LSM difference from placebo” value (5 mg, Day 28) was −0.82 uV and the “peak P3b latency at CPComp electrodes, ES” value (5 mg, Day 28) was −0.81. The “peak P3b latency at CPComp electrodes, LSM difference from placebo” value (5 mg, Day 28) was -38 ms, the “MMN amplitude at Fz electrode, ES” value (15 mg, Day 28) was −0.64 and the “MMN amplitude at Fz electrode, LSM difference from placebo” value (15 mg, Day 28) was −0.63 uV. The “P3a amplitude at Fz electrode, ES” value (15 mg, Day 28) was −0.73, the “P3a amplitude at Fz electrode, LSM difference from placebo” value (15 mg, Day 28) was −0.84 uV and the “delta power at Cz electrode, eyes open, ES” value (15 mg, Day 28) was 0.75. For the same compound, the “delta power at Cz electrode, eyes open, LSM difference from placebo” value (15 mg, Day 28) was 3.8, the “peak P3b latency at CPComp electrodes” value (15 mg, Day 28) was “no significant decrease” and the “P3b mean amplitude at CPComp electrodes, ESs” value (across all 3 doses) was 0.22-0.44. The “MMN, mean ES” value (all HTL0018318 doses) was 0.6, the “P3b amplitude, ES” value (all HTL0018318 doses) was 0.33 and the “P3b latency, ES” value (all HTL0018318 doses) was 0.42. The “eyes open delta power, mean ES” value (all HTL0018318 doses) was 0.52, the “peak MMN latency” value (all doses) was “No statistically significant improvements” and the “40 Hz ASSR gamma-band evoked power or phase locking at Fz electrode” value (any HTL0018318 dose) was “no significant effects”.
